pEC50: −log10 of the molar value.
Biological target: T1, LXRα (Homo sapiens, UniProt Q13133)
T1 construct: Co-transfection expression plasmids, comprising full-length LXRα (pCMX-h LXRα); expressed in transfected cells; host or cells: CV-1 African green monkey kidney cells, transient transfection with FuGENE6
T1 sequence (Q13133 1-447): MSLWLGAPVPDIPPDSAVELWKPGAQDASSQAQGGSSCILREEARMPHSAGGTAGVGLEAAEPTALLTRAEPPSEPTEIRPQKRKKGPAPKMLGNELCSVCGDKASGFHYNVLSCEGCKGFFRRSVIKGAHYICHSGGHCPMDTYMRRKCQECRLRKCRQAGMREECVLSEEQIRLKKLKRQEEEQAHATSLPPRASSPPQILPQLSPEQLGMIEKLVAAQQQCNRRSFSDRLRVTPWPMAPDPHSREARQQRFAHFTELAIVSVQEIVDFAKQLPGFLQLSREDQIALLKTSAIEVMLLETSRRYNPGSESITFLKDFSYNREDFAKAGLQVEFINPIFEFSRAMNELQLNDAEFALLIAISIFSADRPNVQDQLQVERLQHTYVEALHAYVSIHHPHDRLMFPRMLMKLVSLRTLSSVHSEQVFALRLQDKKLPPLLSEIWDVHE
T1 sequence (P19793 1-462 partner): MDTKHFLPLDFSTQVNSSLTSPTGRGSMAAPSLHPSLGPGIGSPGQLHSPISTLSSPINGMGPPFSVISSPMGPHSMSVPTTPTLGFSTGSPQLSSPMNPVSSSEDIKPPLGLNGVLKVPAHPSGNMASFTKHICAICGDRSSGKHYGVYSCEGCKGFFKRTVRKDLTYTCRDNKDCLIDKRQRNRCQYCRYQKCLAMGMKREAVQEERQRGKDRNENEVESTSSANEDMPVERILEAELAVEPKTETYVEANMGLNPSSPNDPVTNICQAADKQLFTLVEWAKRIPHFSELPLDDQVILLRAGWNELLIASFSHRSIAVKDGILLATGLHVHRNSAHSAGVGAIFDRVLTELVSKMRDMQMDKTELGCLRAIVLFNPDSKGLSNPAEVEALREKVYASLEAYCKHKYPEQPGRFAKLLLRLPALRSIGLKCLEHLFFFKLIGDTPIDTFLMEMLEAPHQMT
Test: LXR/LXRE co-transfection assay (LXRα)
Type: cell-based
Conditions: for pEC50: CV-1 cells, LXRE luciferase reporter; for Emax: efficacy relative to high control N-(3-((4-fluorophenyl)-(naphthalene-2-sulfonyl)amino)propyl)-2,2-dimethylpropionamide, read-out: LXRα Eff (%)
From the text: To measure the ability of compounds to activate or inhibit the transcriptional activity of LXR in a cell based assay, the co-transfection assay was used. It has been shown that LXR functions as a heterodimer with RXR. For the co-transfection assay, expression plasmids for LXRα and LXRβ are introduced separately via transient transfection into mammalian cells along with a luciferase reporter plasmid that contains one copy of a DNA sequence that is bound by LXR-RXR heterodimers (LXRE; Willy, P. et. al. 1995). LXRs heterodimerize with the endogenous RXR. Treatment of transfected cells with an LXR agonist increases the transcriptional activity of LXR, which is measured by an increase in luciferase activity.
Co-transfection expression plasmids, comprising full-length LXRα (pCMX-h LXRα or LXRβ (pCMX-hLXRβ), reporter plasmid (LXREx1-Tk-Luciferase), and control (pCMX-Galactosidase expression vector) (Willey et al. Genes & Development 9 1033-1045 (1995)).
CV-1 cells were prepared 24 hours prior to the experiment by plating them into T-175 flasks or 500 cm^2 dishes in order to achieve 70-80% confluency on the day of the transfection. The number of cells to be transfected was determined by the number of plates to be screened. Each well of a 384 well plate requires ˜8000 cells. DNA Transfection Reagent was prepared by mixing the required plasmid DNAs with a cationic lipid transfection reagent FuGENE6 (Roche) by following the instructions provided with the reagents. Optimal DNA amounts were determined empirically per cell line and size of vessel to be transfected. For each T175 cm^2 flask a total of 20 μg of DNA, 60 μl of Fugene 6 and 1 ml of Optimem was mixed and added. Cells were then incubated at least 5 hours at 37° C. to prepare screening cells.
Assay plates were prepared by dispensing 5 μL, of compound per well of a 384 well plate to achieve final compound concentration of 10 μM and no more than 0.5% DMSO. Media was removed from the screening cells, the cells trypsinized, harvested cells by centrifugation, counted, and plated at a density of approximately 8000 cells per well in the 384 well assay plate prepared above in a volume of about 45 μL. Assay plates containing both compounds and screening cells (50 μL, in total volume) were incubated for 20 hours at 37° C.
After incubation with compounds, media was removed from the cells and luciferase assay reagent (30 μL/well) added. After ˜2 minutes at ambient temperature, the assay plates were read on a luminometer (PE Biosystems Northstar reader with on-board injectors, or equivalent).
The LXR/LXRE co-transfection assay can be used to establish the EC50/IC50 values for potency and percent activity or inhibition for efficacy. Efficacy defines the activity of a compound relative to a high control ((N-(3-((4-fluorophenyl)-(naphthalene-2-sulfonyl)amino)propyl)-2,2-dimethylpropionamide)) or a low control (DMSO/vehicle). The dose response curves are generated from a 10 point curve with concentrations differing by ½ LOG units.
The data from this assay is fitted to the following equation, from which the EC50 value may be solved: Y=Bottom+(Top−Bottom)/(1+10^((logEC50-X)*HillSlope)).
The EC50/IC50 is therefore defined as the concentration at which an agonist or antagonist elicits a response that is half way between the Top (maximum) and Bottom (baseline) values. The EC50/IC50 values represented are the averages of at least 2 and normally 3 independent experiments. The determination of the relative efficacy or % control for an agonist is by comparison to the maximum response achieved by ((N-(3-((4-fluorophenyl)-(naphthalene-2-sulfonyl)-amino)propyl)-2,2-dimethylpropionamide) that is measured individually in each dose response experiment.

| SMILES | pEC50 | Emax [%] |
| --- | --- | --- |
| CC(C)(O)c1cn(-c2ccc(-c3cc(F)c(CO)c(S(C)(=O)=O)c3)cc2)c(C(C)(C)c2ccccc2F)n1 [Example 1, 2-(1-(3′-fluoro-4′-(hydroxymethyl)-5′-(methylsulfonyl)biphenyl-4-yl)-2-(2-(2-fluorophenyl)propan-2-yl)-1H-imidazol-4-yl)propan-2-ol] | 6.00 to 7.00 | 13 |
| CC(C)(O)c1cn(-c2ccc(-c3cc(F)c(CO)c(S(C)(=O)=O)c3)cc2)c(Cc2c(Cl)cccc2Cl)n1 [Example 18, 2-(2-(2,6-dichlorobenzyl)-1-(3′-fluoro-4′-(hydroxymethyl)-5′-(methylsulfonyl)biphenyl-4-yl)-1H-imidazol-4-yl)propan-2-ol] | > 7.00 | 17 |
| CC(C)(O)c1cn(-c2ccc(-c3cc(F)c(CO)c(S(C)(=O)=O)c3)cc2F)c(C(C)(C)c2c(Cl)cccc2Cl)n1 [Example 9, 2-(2-(2-(2,6-dichlorophenyl)propan-2-yl)-1-(3,3′-difluoro-4′-(hydroxymethyl)-5′-(methylsulfonyl)biphenyl-4-yl)-1H-imidazol-4-yl)propan-2-ol] |  | 20 |

The remaining lines, values ahead:

| pEC50 | Emax [%] | SMILES |
| --- | --- | --- |
| < 6.00 |  | CC(C)(O)c1cn(-c2ccc(-c3cc(F)c(CO)c(S(C)(=O)=O)c3)cc2F)c(Cc2ccc(Cl)cc2Cl)n1 [Example 11, 2-(2-(2,4-dichlorobenzyl)-1-(3,3′-difluoro-4′-(hydroxymethyl)-5′-(methylsulfonyl)biphenyl-4-yl)-1H-imidazol-4-yl)propan-2-ol] |
| > 7.00 | 19 | CC(C)(O)c1cn(-c2ccc(-c3cc(F)c(CO)c(S(C)(=O)=O)c3)cc2F)c(Cc2ccccc2F)n1 [Example 16, 2-(1-(3,3′-difluoro-4′-(hydroxymethyl)-5′-(methylsulfonyl)biphenyl-4-yl)-2-(2-fluorobenzyl)-1H-imidazol-4-yl)propan-2-ol] |
